According to patent US20230117034A1, “PYRAZOLOTRIAZINES” (Bayer Aktiengesellschaft, priority 2019, published 2023):

What was measured:
[1] = test system: BRCA1 mRNA expression in MDA-MB-231 cells; test: qRT-PCR assay: BRCA1 mRNA expression in MDA-MB-231; format: cell-based, human; conditions: Homo sapiens, MDA-MB-231, Inhibition of BRCA1 mRNA expression in MDA-MB-231 cells; median; read-out: RTqPCR-MDA-MB-231, IC50, BRCA1 (median)
Summary of the method: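 BRCA1 transcript by RT-qPCR relative to GAPDH, from 600 ng RNA converted to cDNA. MDA-MB-231 cells plated at 200,000/well received test compound continuously for 24 h, starting 24 h post-seeding.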

CDK12/CycK = CDK12/CycK (Homo sapiens, UniProt Q9NYV4); test: CDK12/CycK high ATP kinase assay (TR-FRET, 2 mM ATP); format: biochemical; conditions: 2 mM ATP (high ATP); median; read-out: CDK12/CyclinK, 2 mM ATP (high ATP), IC50-[mol/l] (median)
Chain of CDK12/CycK (Q9NYV4 with tags, fused parts or gaps): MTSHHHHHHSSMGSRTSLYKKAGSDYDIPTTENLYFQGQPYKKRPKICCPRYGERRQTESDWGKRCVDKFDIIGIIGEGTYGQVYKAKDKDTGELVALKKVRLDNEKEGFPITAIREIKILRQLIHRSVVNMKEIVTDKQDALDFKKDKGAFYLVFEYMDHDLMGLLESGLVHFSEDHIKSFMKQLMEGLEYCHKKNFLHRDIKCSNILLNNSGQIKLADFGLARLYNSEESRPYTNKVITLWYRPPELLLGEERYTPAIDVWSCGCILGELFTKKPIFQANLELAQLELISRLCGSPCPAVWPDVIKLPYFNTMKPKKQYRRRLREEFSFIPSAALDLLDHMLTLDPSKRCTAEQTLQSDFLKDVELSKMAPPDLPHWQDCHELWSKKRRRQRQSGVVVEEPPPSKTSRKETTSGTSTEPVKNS
Chain of CDK12/CycK (O75909 1-300 partner limits assumed): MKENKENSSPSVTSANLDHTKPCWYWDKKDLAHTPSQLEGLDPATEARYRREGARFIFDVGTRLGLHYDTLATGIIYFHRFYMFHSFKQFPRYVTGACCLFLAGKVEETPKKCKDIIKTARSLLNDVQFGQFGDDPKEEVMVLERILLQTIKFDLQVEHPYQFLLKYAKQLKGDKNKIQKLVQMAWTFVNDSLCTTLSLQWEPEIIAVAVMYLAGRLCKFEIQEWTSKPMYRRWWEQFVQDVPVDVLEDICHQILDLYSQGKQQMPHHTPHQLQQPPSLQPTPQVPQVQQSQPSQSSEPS
Summary of the method: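 Read-out is TR-FRET (Eu-anti-rabbit IgG, anti-phospho-c-Myc Ser62 antibody, streptavidin-XL665) after EDTA stop. Reaction ran 60 min at 22 °C using 1 µM biotin-peptide and high ATP (2 mM) with roughly 0.75 nM recombinant CDK12/CycK, after 15 min compound pre-binding; normalised emission ratios yield IC50.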

[2] = target: T1, CDK12 (nuclear staining in CAL-120 cells) (Homo sapiens, UniProt Q9NYV4); test: CDK12 nuclear protein level: immunofluorescence/high content analysis (CAL-120); format: cell-based; conditions: for DC50: CAL-120 cells, 24 h, immunofluorescence, 50% reduction of nuclear CDK12 staining intensity, median, read-out: CDK12 degradation IF, DC50- [mol/l] (median); for (IC50 CDK12 high ATP) to (Degradation DC50 CDK12) ratio: ratio of IC50 CDK12 high ATP kinase assay to DC50 CDK12 degradation (IF, CAL-120)
T1 construct: endogenous in cells; host or cells: CAL-120 human breast cancer cells (DSMZ ACC 459)
T1 sequence (Q9NYV4 whole entry): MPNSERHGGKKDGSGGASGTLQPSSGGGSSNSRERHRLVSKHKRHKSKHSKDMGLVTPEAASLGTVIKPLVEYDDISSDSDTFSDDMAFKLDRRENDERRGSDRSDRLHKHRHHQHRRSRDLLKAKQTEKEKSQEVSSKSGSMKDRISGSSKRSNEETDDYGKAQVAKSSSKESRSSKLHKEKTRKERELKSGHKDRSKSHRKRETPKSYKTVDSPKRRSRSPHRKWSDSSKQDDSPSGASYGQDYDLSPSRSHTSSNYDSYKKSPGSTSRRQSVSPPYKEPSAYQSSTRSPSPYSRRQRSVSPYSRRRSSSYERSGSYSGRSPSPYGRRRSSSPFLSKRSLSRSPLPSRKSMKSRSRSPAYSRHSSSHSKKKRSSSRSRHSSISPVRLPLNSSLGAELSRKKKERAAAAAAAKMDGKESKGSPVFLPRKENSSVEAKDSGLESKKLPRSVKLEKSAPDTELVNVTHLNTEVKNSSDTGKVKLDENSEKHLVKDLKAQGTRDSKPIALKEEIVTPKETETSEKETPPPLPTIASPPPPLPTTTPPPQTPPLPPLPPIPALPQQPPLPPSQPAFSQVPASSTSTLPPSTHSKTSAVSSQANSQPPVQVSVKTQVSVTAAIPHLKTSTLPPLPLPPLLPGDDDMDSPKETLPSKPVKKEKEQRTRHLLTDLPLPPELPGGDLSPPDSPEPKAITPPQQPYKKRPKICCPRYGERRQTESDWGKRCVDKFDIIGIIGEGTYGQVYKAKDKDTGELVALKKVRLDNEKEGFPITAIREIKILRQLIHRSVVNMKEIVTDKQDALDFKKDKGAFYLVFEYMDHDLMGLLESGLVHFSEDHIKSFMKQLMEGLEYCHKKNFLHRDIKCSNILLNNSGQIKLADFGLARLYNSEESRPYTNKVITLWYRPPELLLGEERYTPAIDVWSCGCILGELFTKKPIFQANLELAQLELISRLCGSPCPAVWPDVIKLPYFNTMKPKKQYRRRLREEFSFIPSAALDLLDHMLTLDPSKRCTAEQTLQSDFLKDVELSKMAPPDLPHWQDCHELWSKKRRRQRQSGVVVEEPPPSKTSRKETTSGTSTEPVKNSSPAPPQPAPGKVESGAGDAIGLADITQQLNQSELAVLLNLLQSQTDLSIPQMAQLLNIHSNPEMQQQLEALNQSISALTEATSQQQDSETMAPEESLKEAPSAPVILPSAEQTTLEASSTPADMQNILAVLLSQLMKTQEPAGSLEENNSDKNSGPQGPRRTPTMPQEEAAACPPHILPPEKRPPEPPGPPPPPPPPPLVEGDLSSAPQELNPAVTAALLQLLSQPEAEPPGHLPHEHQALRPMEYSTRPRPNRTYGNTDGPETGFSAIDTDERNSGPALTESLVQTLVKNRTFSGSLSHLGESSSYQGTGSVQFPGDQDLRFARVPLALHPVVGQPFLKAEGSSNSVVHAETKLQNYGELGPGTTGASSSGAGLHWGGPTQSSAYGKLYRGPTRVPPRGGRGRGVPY
T1 sequence (O75909 whole entry partner): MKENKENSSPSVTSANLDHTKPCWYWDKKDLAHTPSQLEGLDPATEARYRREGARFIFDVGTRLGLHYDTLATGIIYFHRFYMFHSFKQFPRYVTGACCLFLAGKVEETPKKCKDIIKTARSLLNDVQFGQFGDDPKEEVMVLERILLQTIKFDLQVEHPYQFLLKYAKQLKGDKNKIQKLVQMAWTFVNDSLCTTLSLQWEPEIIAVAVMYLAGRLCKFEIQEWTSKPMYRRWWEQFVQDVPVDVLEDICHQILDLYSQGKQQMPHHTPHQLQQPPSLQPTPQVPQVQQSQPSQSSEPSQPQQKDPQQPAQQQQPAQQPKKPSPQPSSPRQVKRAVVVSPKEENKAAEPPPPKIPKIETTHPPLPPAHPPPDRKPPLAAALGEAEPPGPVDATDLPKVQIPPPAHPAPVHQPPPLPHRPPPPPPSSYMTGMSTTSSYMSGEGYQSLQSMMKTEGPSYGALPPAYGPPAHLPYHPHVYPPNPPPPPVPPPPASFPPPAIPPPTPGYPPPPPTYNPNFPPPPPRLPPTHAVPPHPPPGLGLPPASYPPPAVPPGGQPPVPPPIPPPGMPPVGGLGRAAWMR
Summary of the method: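 DC50 is the degrader concentration that halves nuclear CDK12 immunofluorescence relative to controls, measured by high-content imaging. CAL-120 cells were exposed to compound for 24 h at 37 °C before PFA fixation, and signal was normalized to DMSO and control wells.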

Row | IC50 [1] [nM] | IC50 (CDK12/CycK) [nM] | DC50 [2] [nM] | (IC50 CDK12 high ATP) to (Degradation DC50 CDK12) ratio [2] | SMILES
1 | 60.3 | 7480 | 34.9 | 214 | COc1cccc2[nH]c(CNc3nc(N4C[C@H]5C[C@@H]4CO5)nc4c(C5CC5)cnn34)nc12 [Example 198, 8-cyclopropyl-N-[(4-methoxy-1H-benzimidazol-2-yl)methyl]-2-[(1R,4R)-2-oxa-5-azabicyclo[2.2.1]heptan-5-yl]pyrazolo[1,5-a][1,3,5]triazin-4-amine]
2 | 1.03 | 6560 | 2 | 3278 | Fc1ccc2[nH]c(CNc3nc(N4C[C@@H]5CCCN[C@@H]5C4)nc4c(C5CC5)cnn34)nc2c1F [Example 171, 8-cyclopropyl-N-[(4,5-difluoro-1H-benzimidazol-2-yl)methyl]-2-[(4aS,7aS)-octahydro-6H-pyrrolo[3,4-b]pyridin-6-yl]pyrazolo[1,5-a][1,3,5]triazin-4-amine]
3 | 1.63 | 11000 | 0.322 | 34272 | C[C@@H]1CN(c2nc(NCc3nc4cc(F)ccc4[nH]3)n3ncc(C4CC4)c3n2)C[C@H](C)N1 [Example 175, 8-cyclopropyl-2-[(3R,5S)-3,5-dimethylpiperazin-1-yl]-N-[(5-fluoro-1H-benzimidazol-2-yl)methyl]pyrazolo[1,5-a][1,3,5]triazin-4-amine]
4 | 131 | > 20000 | 7.88 | >2537 | Brc1cnn2c(NCc3nc4ccccc4[nH]3)nc(N3CCC4(CCCN4)C3)nc12 (stereo not shown) [Example 215, N-(1H-benzimidazol-2-ylmethyl)-8-bromo-2-(1,7-diazaspiro[4.4]nonan-7-yl)pyrazolo[1,5-a][1,3,5]triazin-4-amine]
5 | 5.49 | 4150 | 1.09 | 3798 | COc1cccc2[nH]c(CNc3nc(N4C[C@@H](C)N[C@@H](C)C4)nc4c(C5CC5)cnn34)nc12 [Example 212, 8-cyclopropyl-2-[(3R,5S)-3,5-dimethylpiperazin-1-yl]-N-[(4-methoxy-1H-benzimidazol-2-yl)methyl]pyrazolo[1,5-a][1,3,5]triazin-4-amine]
6 | 4.17 | 10200 | 1.65 | 6199 | Fc1cccc2[nH]c(CNc3nc(N4C[C@@H]5C[C@H]4CO5)nc4c(C5CC5)cnn34)nc12 [Example 183, 8-cyclopropyl-N-[(4-fluoro-1H-benzimidazol-2-yl)methyl]-2-[(1S,4S)-2-oxa-5-azabicyclo[2.2.1]heptan-5-yl]pyrazolo[1,5-a][1,3,5]triazin-4-amine]
7 | 4.24 | 2740 | 2.32 | 1184 | COc1cccc2[nH]c(CNc3nc(N4CCNCC4)nc4c(C5CC5)cnn34)nc12 [Example 211, 8-cyclopropyl-N-[(4-methoxy-1H-benzimidazol-2-yl)methyl]-2-(piperazin-1-yl)pyrazolo[1,5-a][1,3,5]triazin-4-amine]
8 | 20.4 | > 17900 | 7.18 | – | COC(C)(C)CNc1nc(NCc2nc3ccccc3[nH]2)n2ncc(Br)c2n1 [Example 236, N4-(1H-benzimidazol-2-ylmethyl)-8-bromo-N2-(2-methoxy-2-methyl-propyl)pyrazolo[1,5-a][1,3,5]triazine-2,4-diamine]
9 | 4.68 | 2330 | 1.53 | 1525 | Brc1cnn2c(NCc3nc4ccccc4[nH]3)nc(N3CCNC4(CC4)C3)nc12 [Example 176, N-[(1H-benzimidazol-2-yl)methyl]-8-bromo-2-(4,7-diazaspiro[2.5]octan-7-yl)pyrazolo[1,5-a][1,3,5]triazin-4-amine]
10 | 1.67 | 6800 | 0.471 | 14455 | Cc1ccc2[nH]c(CNc3nc(N4C[C@@H](C)N[C@@H](C)C4)nc4c(Br)cnn34)nc2c1 [Example 209, 8-bromo-2-[(3R,5S)-3,5-dimethylpiperazin-1-yl]-N-[(5-methyl-1H-benzimidazol-2-yl)methyl]pyrazolo[1,5-a][1,3,5]triazin-4-amine]
11 | 34.8 | 10300 | 22.1 | 466 | CC1(O)CCN(c2nc(NCc3nc4ccccc4[nH]3)n3ncc(Br)c3n2)C1 (stereo not shown) [Example 225, 1-[4-(1H-benzimidazol-2-ylmethylamino)-8-bromo-pyrazolo[1,5-a][1,3,5]triazin-2-yl]-3-methyl-pyrrolidin-3-ol]
12 | 4.18 | 5550 | 4.21 | 1318 | Brc1cnn2c(NCc3nc4ccccc4[nH]3)nc(N3CC4CCC3CN4)nc12 (stereo not shown) [Example 220, N-(1H-benzimidazol-2-ylmethyl)-8-bromo-2-(2,5-diazabicyclo[2.2.2]octan-2-yl)pyrazolo[1,5-a][1,3,5]triazin-4-amine]
13 | 3.51 | 1910 | 0.878 | 2179 | Fc1ccc2[nH]c(CNc3nc(N4CCOCC4)nc4c(C5CC5)cnn34)nc2c1 [Example 181, 8-cyclopropyl-N-[(5-fluoro-1H-benzimidazol-2-yl)methyl]-2-(morpholin-4-yl)pyrazolo[1,5-a][1,3,5]triazin-4-amine]
14 | 19.3 | 8090 | 3.92 | 2062 | COc1cccc2[nH]c(CNc3nc(N4C[C@@H]5CCCN[C@@H]5C4)nc4c(C5CC5)cnn34)nc12 [Example 214, 8-cyclopropyl-N-[(4-methoxy-1H-benzimidazol-2-yl)methyl]-2-[(4aS,7aS)-octahydro-6H-pyrrolo[3,4-b]pyridin-6-yl]pyrazolo[1,5-a][1,3,5]triazin-4-amine]
15 | 2.27 | > 20000 | 1.41 | >14143 | Cc1ccc2[nH]c(CNc3nc(N4CCN(C)CC4)nc4c(C5CC5)cnn34)nc2c1 [Example 210, 8-cyclopropyl-N-[(5-methyl-1H-benzimidazol-2-yl)methyl]-2-(4-methylpiperazin-1-yl)pyrazolo[1,5-a][1,3,5]triazin-4-amine]
16 | 5.76 | 4860 | 10.3 | 472 | O[C@H]1C[C@@H](Nc2nc(NCc3nc4ccccc4[nH]3)n3ncc(Br)c3n2)C1 [Example 234, cis-3-[(4-{[(1H-benzimidazol-2-yl)methyl]amino}-8-bromopyrazolo[1,5-a][1,3,5]triazin-2-yl)amino]cyclobutan-1-ol]
17 | 3.06 | 581 | 1.26 | 460 | Fc1cccc2[nH]c(CNc3nc(N4CCOCC4)nc4c(C5CC5)cnn34)nc12 [Example 188, 8-cyclopropyl-N-[(4-fluoro-1H-benzimidazol-2-yl)methyl]-2-(morpholin-4-yl)pyrazolo[1,5-a][1,3,5]triazin-4-amine]
18 | 5.41 | 6940 | 4.54 | 1528 | OC1CCCN(c2nc(NCc3nc4ccccc4[nH]3)n3ncc(Br)c3n2)C1 (racemic) [Example 16, (rac)-1-(4-{[(1H-benzimidazol-2-yl)methyl]amino}-8-bromopyrazolo[1,5-a][1,3,5]triazin-2-yl)piperidin-3-ol]
19 | 0.829 | 3700 | 0.23 | 16078 | Cc1ccc2[nH]c(CNc3nc(N4C[C@@H](C)N[C@@H](C)C4)nc4c(C5CC5)cnn34)nc2c1 [Example 194, 8-cyclopropyl-2-[(3R,5S)-3,5-dimethylpiperazin-1-yl]-N-[(5-methyl-1H-benzimidazol-2-yl)methyl]pyrazolo[1,5-a][1,3,5]triazin-4-amine]
20 | > 12.4 | 1790 | 6.49 | 276 | CN(CC(C)(C)O)c1nc(NCc2nc3ccccc3[nH]2)n2ncc(Br)c2n1 [Example 238, 1-[(4-{[(1H-benzimidazol-2-yl)methyl]amino}-8-bromopyrazolo[1,5-a][1,3,5]triazin-2-yl)(methyl)amino]-2-methylpropan-2-ol]

Row | SMILES | IC50 [1] [nM] | IC50 (CDK12/CycK) [nM] | DC50 [2] [nM] | (IC50 CDK12 high ATP) to (Degradation DC50 CDK12) ratio [2]
21 | Brc1cnn2c(NCc3nc4ccccc4[nH]3)nc(N3CC4CCC(C3)N4)nc12 [Example 232, N-(1H-benzimidazol-2-ylmethyl)-8-bromo-2-(3,8-diazabicyclo[3.2.1]octan-3-yl)pyrazolo[1,5-a][1,3,5]triazin-4-amine] | 4.92 | 5280 | > 3.6 | –
